One data set concerns UGTs in HLMs. Nature of the data set: Inhibition of glucuronidation reaction by chemical inhibitors in HLMs. The note with it: vs. control without inhibitor. The data set is classed as in vitro ADME, human. As for the experimental part: To obtain suitable incubation conditions, we first evaluated the linearity of metabolite formation at different times (10-60 min), the UDPGA concentrations (0.5-5 mM), and the microsome protein concentrations in HLMs (0.2-2 mg/mL). The final incubation medium used in the experiment contained MgCl2 (10 mM), microsomes (0.5 mg/mL), 1,4-lactone monohydrate (5 mM), alamethicin ([…]), UDPGA (1 mM), and different concentrations of tectorigenin or […] (1-300 μM) in Tris-HCl buffer (50 mM, pH 7.4). The mixture was incubated at 37 °C for 30 min; then, the reaction was stopped by adding ice-cold methanol. After the mixtures were centrifuged (17,000 rpm, 10 min), and the supernatant was analyzed by HPLC. Michaelis-Menten parameters (Vmax and Km) were determined on the basis of the nonlinear regression of the plot of the substrate concentration vs. rate of metabolite formation. Several well-characterized UGT substrates were used as “inhibitors” to examine the involvement of UGTs in the glucuronidation of tectorigenin or […]. To reduce nonspecific inhibition, the concentration of each inhibitor was determined according to the available literature, namely, 100 μM silibinin for UGT1A1 [31], 50 μM trifluoperazine for UGT1A4 [32], 100 μM 1-naphthol for UGT1A6/1A9 [18, 33], and 500 μM fluconazole for UGT2B7 [34]. A reaction without inhibitors was carried out in parallel as a control.

Data set [1] is described as follows: Stability experiment under different storage conditions. The data set is classed as physicochemical. As to conditions: for Stability in Autosampler for 12 h, RE (%): 4 °C; for Stability in Autosampler for 12 h, RE (%) / Stability in Inactivated Metabolic System for 2 h, RE (%) / Stability −80 °C for 7 Days, RE (%): n = 5; for Stability in Inactivated Metabolic System for 2 h, RE (%): approximately 25 °C. Here is the method: In the stability experiment, we evaluated the stability of tectorigenin and irigenin, as well as their metabolites, under different conditions. […] Metabolites (M, M1, and M2) were stable in the inactivated metabolic system for 2 h (held constant at approximately 25 °C) and after storage for 7 days (−80 °C), as well as in the pretreated samples placed in the autosampler for 12 h at 4 °C.

For the next data set, the target named is T1, UGT1A9 (Homo sapiens, UniProt O60656).
T1 construct: purchased BD Biosciences (Woburn, MA, USA)
T1 sequence (O60656 26-530): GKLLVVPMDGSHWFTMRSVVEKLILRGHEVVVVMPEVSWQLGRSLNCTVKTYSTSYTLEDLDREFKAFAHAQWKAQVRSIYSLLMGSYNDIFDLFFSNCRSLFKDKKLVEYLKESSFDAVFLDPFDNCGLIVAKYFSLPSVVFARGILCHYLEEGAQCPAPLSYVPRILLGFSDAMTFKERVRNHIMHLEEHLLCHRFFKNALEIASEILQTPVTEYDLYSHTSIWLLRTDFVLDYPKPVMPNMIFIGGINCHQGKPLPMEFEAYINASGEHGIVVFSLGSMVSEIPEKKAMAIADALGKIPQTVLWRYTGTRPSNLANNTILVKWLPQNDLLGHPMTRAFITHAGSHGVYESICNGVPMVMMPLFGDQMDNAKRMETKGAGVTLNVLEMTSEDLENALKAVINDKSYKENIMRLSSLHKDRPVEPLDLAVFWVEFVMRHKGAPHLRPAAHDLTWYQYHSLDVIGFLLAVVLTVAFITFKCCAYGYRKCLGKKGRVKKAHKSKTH
Nature of the data set: Recombinant UGT reaction screening and enzyme kinetics, UGT1A9. It is filed as in vitro ADME. The note with it: recombinant UGT1A9 screening. Here is the method:
(§1) UGT reaction screening of tectorigenin and irigenin was conducted using nine commercially available human UGTs (UGT1A1/1A3/1A4/1A6/1A9/2B4/2B7/2B15/2B17). Furthermore, we studied the enzymatic kinetic characteristics of tectorigenin and irigenin using UGT1A1 and UGT1A9. Six concentrations of tectorigenin and irigenin (1, 3, 10, 30, 100, and 300 μM) were incubated in triplicate in order to obtain the enzyme kinetic characteristics of tectorigenin and irigenin glucuronide.
(§2) For both HLMs and UGTs, metabolic kinetic analysis was performed by fitting the data to the Michaelis-Menten model. The Km and Vmax of enzymes were calculated as follows:(3) V=Vmax×[S]/Km+[S], where [S] is the substrate concentration. All results were shown as the mean ± standard error (SE). Differences among different groups were compared using one-way analysis of variance. A p-value < 0.05 was considered statistically significant.

A further data set concerns the target T2, UGT1A1 (Homo sapiens, UniProt P22309).
T2 construct: purchased BD Biosciences (Woburn, MA, USA)
T2 sequence (P22309 26-533): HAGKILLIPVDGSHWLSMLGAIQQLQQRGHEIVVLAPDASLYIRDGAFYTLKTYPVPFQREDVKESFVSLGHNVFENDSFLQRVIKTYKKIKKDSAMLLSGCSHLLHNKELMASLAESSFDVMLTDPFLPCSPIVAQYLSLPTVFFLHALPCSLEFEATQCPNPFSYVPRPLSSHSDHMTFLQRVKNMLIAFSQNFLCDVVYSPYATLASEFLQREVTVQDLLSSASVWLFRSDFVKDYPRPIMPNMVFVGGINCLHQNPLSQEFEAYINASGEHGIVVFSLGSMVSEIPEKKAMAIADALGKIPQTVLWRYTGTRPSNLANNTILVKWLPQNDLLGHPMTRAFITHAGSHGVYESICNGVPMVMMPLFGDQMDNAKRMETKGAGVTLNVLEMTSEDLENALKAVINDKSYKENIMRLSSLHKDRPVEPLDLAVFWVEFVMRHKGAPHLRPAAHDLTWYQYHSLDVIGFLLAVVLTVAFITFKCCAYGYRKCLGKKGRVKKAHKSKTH
Nature of the data set: Recombinant UGT reaction screening and enzyme kinetics, UGT1A1. It is filed as in vitro ADME. As to conditions: recombinant UGT1A1 screening. As for the experimental part: as §1, §2

Data set [2] concerns pooled human liver microsomes (HLMs). Kind of data set: Glucuronidation kinetics of tectorigenin and irigenin in HLMs. The note with it: irigenin glucuronidation in HLMs. The data set is classed as in vitro ADME. As for the experimental part: To obtain suitable incubation conditions, we first evaluated the linearity of metabolite formation at different times (10–60 min), the UDPGA concentrations (0.5–5 mM), and the microsome protein concentrations in HLMs (0.2–2 mg/mL). The final incubation medium used in the experiment contained MgCl2 (10 mM), microsomes (0.5 mg/mL), 1,4-lactone monohydrate (5 mM), alamethicin ([…]), UDPGA (1 mM), and different concentrations of tectorigenin or irigenin (1–300 μM) in Tris-HCl buffer (50 mM, pH 7.4). The mixture was incubated at 37 °C for 30 min; then, the reaction was stopped by adding ice-cold methanol. After the mixtures were centrifuged (17,000 rpm, 10 min), and the supernatant was analyzed by HPLC. Michaelis–Menten parameters (Vmax and Km) were determined on the basis of the nonlinear regression of the plot of the substrate concentration vs. rate of metabolite formation.
as §2

Substrate in data set [3]: COc1c(O)cc2occ(-c3ccc(O)cc3)c(=O)c2c1O
Kind of data set: Recombinant UGT reaction screening and enzyme kinetics, UGT1A1. The note with it: other: tectorigenin glucuronidation (M) by UGT1A1. It is filed as in vitro ADME, human. As for the experimental part:
as §1, §2

Substrate in data set [4]: COc1cc(-c2coc3cc(O)c(OC)c(O)c3c2=O)cc(O)c1OC
The data set is described as above. As to conditions: other: irigenin glucuronidation, UGT1A1(M1). The data set is classed as in vitro ADME, human. As for the experimental part: as §1, §2

Substrate in data set [5]: COc1c(O)cc2occ(-c3ccc(O)cc3)c(=O)c2c1O
Kind of data set: Recombinant UGT reaction screening and enzyme kinetics, UGT1A9. The note with it: other: tectorigenin glucuronidation (M) by UGT1A9. The data set is classed as in vitro ADME, human. As for the experimental part:
as §1, §2

Substrate in data set [6]: COc1cc(-c2coc3cc(O)c(OC)c(O)c3c2=O)cc(O)c1OC
The data set is described as above. It is filed as in vitro ADME, human. As to conditions: other: irigenin glucuronidation. As for the experimental part: as §1, §2

Where [7] appears, read: 100 μM silibinin, 100 μM 1-naphthol.

From publication PMC9268515, “UGT1A1 and UGT1A9 Are Responsible for Phase II Metabolism of Tectorigenin and Irigenin In Vitro” (Molecules, 2022) come the findings set out here.

Usually Km stands for the substrate concentration at which the rate is half of its maximum. A word on the Vmax: it is the top rate of the reaction or transport when substrate is in excess.

Like-named read-outs stand apart in the source and are kept apart here.

Turning to `COc1cc(C2Oc3cc([C@H]4Oc5cc(O)cc(O)c5C(=O)[C@@H]4O)ccc3OC2CO)ccc1O` (some centres unmarked) [Silibinin], the “Effect of UGT inhibitor on tectorigenin glucuronidation” value in the data set on UGTs in HLMs (setting [7]) is “significantly inhibited”. Also, the “Effect of UGT inhibitor on production of M1 from irigenin” value with UGTs in HLMs (100 μM silibinin) was “significantly inhibited”.

For the molecule `Oc1cccc2ccccc12` [1-naphthol], the “Effect of UGT inhibitor on production of M2 from irigenin” value with UGTs in HLMs (100 μM 1-naphthol) is “inhibited”. For the same molecule, the “Effect of UGT inhibitor on tectorigenin glucuronidation” value with UGTs in HLMs (setting [7]) is given as “significantly inhibited”.

For `COc1c(O[C@@H]2O[C@H](C(=O)O)[C@@H](O)[C@H](O)[C@H]2O)cc2occ(-c3ccc(O)cc3)c(=O)c2c1O` [M, tectorigenin-7-O-glucuronide], in [1] (High concentration), the “Stability in Autosampler for 12 h, RE (%)” value is given as −5.18%; the “Stability in Inactivated Metabolic System for 2 h, RE (%)” value is 0.59%; the “Stability −80 °C for 7 Days, RE (%)” value is 4.71%. In addition, in data set [1] (Low concentration), the “Stability in Autosampler for 12 h, RE (%)” value is on record as −2.13%; the “Stability in Inactivated Metabolic System for 2 h, RE (%)” value was 0.38%; the “Stability −80 °C for 7 Days, RE (%)” value came out at 2.90%. Besides, in [1] (inactivated metabolic system 2 h (approx. 25 °C), 7 days at −80 °C, autosampler 12 h at 4 °C), the “Stability of metabolites” value is recorded as “stable”.

With `COc1cc(-c2coc3cc(O)c(OC)c(O)c3c2=O)cc(O)c1OC` [Irigenin, 3’,5,7-trihydroxy-4’,5’,6-trimethoxy isoflavone], the “Activity in glucuronidation of irigenin, M2 formation” value at UGT1A9 is “highest effect”. Also, the “Activity in glucuronidation of irigenin, M1 formation” value at UGT1A1 is “highest activity”. For the same molecule, the “Stability in pretreated samples in the autosampler” value in data set [1] (autosampler 12 h at 4 °C) is “stable”. Further, in data set [1] (autosampler 12 h at 4 °C, printed as below ±5%), the “RE and RSD values in pretreated samples in the autosampler” value is on record as less than 5%. Further, the “Vmax for M1 formation” value in [2] (metabolite M1) was found to be 6.09 ± 0.27 nmol/min/mg. Further, the Km in [2] (metabolite M1, read-out: Km for M1 formation) turned out to be 16.9 ± 2.96 µM; in data set [2] (metabolite M2, read-out: Km for M2 formation) it was 27.4 ± 2.46 µM. The “Vmax for M2 formation” value in data set [2] (metabolite M2) turned out to be 1.16 ± 0.03 nmol/min/mg.

B1: UGT1A1 (Homo sapiens) (protein)
chain: T2 sequence (P22309 26-533)
notes: purchased BD Biosciences (Woburn, MA, USA)
For the molecule B1, in [3], the Michaelis constant (Km) was found to be 4.064e-05 ± 5.56e-06 M and the maximum rate (Vmax) is 0.00901 µmol/min/mg. Besides, in [4], the Km is 20.86 ± 2.04 µM and the Vmax came out at 0.00522 µmol/min/mg.

B2: UGT1A9 (Homo sapiens) (protein)
chain: T1 sequence (O60656 26-530)
notes: as for B1
Take B2: the Michaelis-Menten constant (Km) was 1.837e-05 ± 1.16e-06 M in data set [5], 73.88 ± 4.04 µM in [6] (UGT1A9(M1)) and 25.04 ± 2.37 µM in [6] (UGT1A9(M2)). Further, the maximum rate (Vmax) turned out to be 0.00349 µmol/min/mg in [5], 0.00045 µmol/min/mg in data set [6] (UGT1A9(M1)) and 0.00456 µmol/min/mg in [6] (UGT1A9(M2)).
